From patent publication US20250213555A1, “SUBSTITUTED TETRAHYDROFURAN ANALOGS AS MODULATORS OF SODIUM CHANNELS” (VERTEX PHARMACEUTICALS INCORPORATED, priority 2021, published 2025)

Molecular target: human Nav 1.8 (Homo sapiens, UniProt Q9Y5Y9)
Test: E-VIPR assay detecting and measuring Nav inhibition properties
Format: cell-based
Settings: HEK cells expressing a truncated form of human Nav 1.8; compound numbers without "*" (not marked as run in the presence of human serum); read-out: measured IC50 value in the E-VIPR Assay
Excerpt: E-VIPR Assay Detecting and Measuring Nav Inhibition Properties
Sodium ion channels are voltage-dependent proteins that can be activated by inducing membrane voltage changes by applying electric fields. The electrical stimulation instrument and methods of use, referred to as E-VIPR, are described in International Publication No. WO 2002/008748 A3 and C.-J. Huang et al. Characterization of voltage-gated sodium channel blockers by electrical stimulation and fluorescence detection of membrane potential, 24 Nature Biotech. 439-46 (2006), both of which are incorporated by reference in their entirety. The instrument comprises a microtiter plate handler, an optical system for exciting the coumarin dye while simultaneously recording the coumarin and oxonol emissions, a waveform generator, a current- or voltage-controlled amplifier, and parallel electrode pairs that are inserted into assay plate wells. Under integrated computer control, this instrument passes user-programmed electrical stimulus protocols to cells within the wells of the microtiter plate.
16-20 hours prior to running the assay on E-VIPR, HEK cells expressing a truncated form of human Nav 1.8 with full channel activity were seeded into microtiter 384-well plates, pre-coated with matrigel, at a density of 25,000 cells per well. 2.5-5% KIR2.1 Bacmam virus was added to the final cell suspension before seeding into cell plates. HEK cells were grown in Dulbecco's Modified Eagle's Medium (DMEM) supplemented with 10% FBS (Fetal Bovine Serum, qualified; Sigma #F4135), 1% NEAA (Non-Essential Amino Acids, Gibco #11140), 1% HEPES (Gibco #15630), 1% Pen-Strep (Penicillin-Streptomycin; Gibco #15140) and 5 μg/ml Blasticidin (Gibco #R^210-01). Cells were expanded in vented cap cell culture flasks, with 90-95% humidity and 5% CO2.
100 mg/mL Pluronic F-127 (Sigma #P2443), in dry DMSO
Compound Plates: Corning 384-well Polypropylene Round Bottom #3656
Cell Plates: 384-well tissue culture treated plates (Greiner #781091-2B)
2.5-5% KIR 2.1 Bacmam virus (produced in-house), prepared as described in Section 3.3 of J. A. Fornwald et al., Gene Expression in Mammalian Cells Using BacMam, a Modified Baculovirus System, 1350 Methods in Molecular Biology 95-116 (2016), the entire contents of which are incorporated by reference. The concentration used can be dependent on viral titer of each batch.
5 mM DiSBAC6(3), a voltage sensitive oxonol acceptor (CAS number 169211-44-3; 5-[3-(1,3-dihexylhexahydro-4,6-dioxo-2-thioxo-5-pyrimidinyl)-2-propen-1-ylidene]-1,3-dihexyldihydro-2-thioxo-4,6 (1H,5H)-pyrimidinedione), in dry DMSO. The preparation of DiSBAC6(3) is analogous to that of DiSBAC4(3) as described in Voltage Sensing by Fluorescence Resonance Energy Transfer in Single Cells, Gonzalez, J. E. and Tsien, R. Y. (1995) Biophys. J. 69, 1272-1280.
5 mM CC2-DMPE, a commercially available membrane-bound coumarin phospholipid FRET donor (ThermoFisher Scientific catalog number K1017, CAS number 393782-57-5; tetradecanoic acid, 1,1′-[(1R)-1-[8-(6-chloro-7-hydroxy-2-oxo-2H-1-benzopyran-3-yl)-3-hydroxy-3-oxido-8-oxo-2,4-dioxa-7-aza-3-phosphaoct-1-yl]-1,2-ethanediyl] ester) was prepared in dry DMSO. See also, Improved indicators of cell membrane potential that use fluorescence resonance energy transfer, Gonzalez, J. E. and Tsien, R. Y. (1997) Chem. Biol. 4, 269-277.
Voltage Assay Background Suppression Compound (VABSC-1) is prepared in H2O (89-363 mM, range used to maintain solubility)
Human Serum (HS, Millipore #S1P1-01KL, or Sigma SLBR5469V and SLBR5470V as a 50%/50% mixture, for 25% assay final concentration)
• Sodium Chloride 160 mM (9.35 g/L), Potassium Chloride, 4.5 mM (0.335 g/L), Glucose 10 mM (1.8 g/L), Magnesium Chloride (Anhydrous) 1 mM (0.095 g/L), Calcium Chloride 2 mM (0.222 g/L), HEPES 10 mM (2.38 g/L) in water. […]

human Nav 1.8, sequence (Q9Y5Y9 126-399 limits assumed): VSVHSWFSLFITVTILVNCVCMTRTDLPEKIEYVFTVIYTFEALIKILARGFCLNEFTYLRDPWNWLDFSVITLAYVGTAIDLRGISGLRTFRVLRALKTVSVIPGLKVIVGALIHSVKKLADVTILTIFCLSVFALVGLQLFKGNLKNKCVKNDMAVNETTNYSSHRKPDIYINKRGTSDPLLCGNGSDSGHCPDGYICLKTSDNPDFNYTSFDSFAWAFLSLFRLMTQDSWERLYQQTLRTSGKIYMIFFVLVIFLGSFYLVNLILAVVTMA
human Nav 1.8, sequence (Q9Y5Y9 660-890 limits assumed): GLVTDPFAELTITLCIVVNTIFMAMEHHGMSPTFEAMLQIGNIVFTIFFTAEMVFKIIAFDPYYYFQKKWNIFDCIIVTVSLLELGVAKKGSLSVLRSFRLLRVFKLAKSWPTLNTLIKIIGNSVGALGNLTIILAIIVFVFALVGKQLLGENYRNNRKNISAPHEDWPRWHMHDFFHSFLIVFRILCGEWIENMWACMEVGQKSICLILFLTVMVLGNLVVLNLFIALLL
human Nav 1.8, sequence (Q9Y5Y9 1148-1722 limits assumed): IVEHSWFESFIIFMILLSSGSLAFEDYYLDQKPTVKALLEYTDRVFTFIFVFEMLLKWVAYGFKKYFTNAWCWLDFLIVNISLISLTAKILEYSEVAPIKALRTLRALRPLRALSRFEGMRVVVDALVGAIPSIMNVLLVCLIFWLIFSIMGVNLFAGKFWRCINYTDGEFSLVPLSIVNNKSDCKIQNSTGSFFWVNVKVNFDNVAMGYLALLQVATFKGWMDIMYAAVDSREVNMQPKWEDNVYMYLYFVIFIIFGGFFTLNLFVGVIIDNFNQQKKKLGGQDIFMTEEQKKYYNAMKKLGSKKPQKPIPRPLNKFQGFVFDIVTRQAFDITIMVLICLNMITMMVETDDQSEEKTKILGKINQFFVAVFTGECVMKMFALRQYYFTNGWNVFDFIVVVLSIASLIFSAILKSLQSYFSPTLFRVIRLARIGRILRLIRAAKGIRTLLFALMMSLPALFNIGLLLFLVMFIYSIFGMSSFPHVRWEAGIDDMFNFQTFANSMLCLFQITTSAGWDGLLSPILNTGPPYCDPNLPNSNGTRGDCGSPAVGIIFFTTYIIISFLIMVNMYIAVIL

SMILES | IC50
COc1c([C@H]2[C@H](C(=O)Nc3ccnc(C(=O)N4CCN(C)[C@H](C)C4)c3)O[C@@](C)(C(F)(F)F)[C@H]2C)ccc(F)c1F [Compound 288, (2R,3S,4S,5R)-3-(3,4-difluoro-2-methoxyphenyl)-N-(2-((R)-3,4-dimethylpiperazine-1-carbonyl)pyridin-4-yl)-4,5-dimethyl-5-(trifluoromethyl)tetrahydrofuran-2-carboxamide] | < 10 nM
CNC(=O)c1cc(NC(=O)[C@@H]2O[C@@](C)(C(F)(F)F)[C@@H](C)[C@H]2c2ccc(F)c(F)c2OC[C@H](C)N2CC3(COC3)C2)ccn1 [Compound 43, 4-((2R,3S,4S,5R)-3-(2-((S)-2-(2-oxa-6-azaspiro[3.3]heptan-6-yl)propoxy)-3,4-difluorophenyl)-4,5-dimethyl-5-(trifluoromethyl)tetrahydrofuran-2-carboxamido)-N-methylpicolinamide] | < 10 nM
CO[C@H]1CCN(CCOc2c([C@H]3[C@H](C(=O)Nc4ccnc(C(N)=O)c4)O[C@@](C)(C(F)(F)F)[C@H]3C)ccc(F)c2F)C1 [Compound 129, 4-((2R,3S,4S,5R)-3-(3,4-difluoro-2-(2-((S)-3-methoxypyrrolidin-1-yl)ethoxy)phenyl)-4,5-dimethyl-5-(trifluoromethyl)tetrahydrofuran-2-carboxamido)picolinamide] | 10 to 100 nM
COc1c([C@H]2[C@H](C(=O)Nc3ccnc(C(=O)N4C5CC4CN(C)C5)c3)O[C@@](C)(C(F)(F)F)[C@H]2C)ccc(F)c1F [Compound 276, (2R,3S,4S,5R)-3-(3,4-difluoro-2-methoxyphenyl)-4,5-dimethyl-N-(2-(3-methyl-3,6-diazabicyclo[3.1.1]heptane-6-carbonyl)pyridin-4-yl)-5-(trifluoromethyl)tetrahydrofuran-2-carboxamide] | 10 to 100 nM
C[C@H]1[C@@H](c2ccc(F)c(F)c2OCCN(C)C)[C@H](C(=O)Nc2ccnc(C(N)=O)c2)O[C@@]1(C)C(F)(F)F [Compound 44, 4-((2R,3S,4S,5R)-3-(2-(2-(dimethylamino)ethoxy)-3,4-difluorophenyl)-4,5-dimethyl-5-(trifluoromethyl)tetrahydrofuran-2-carboxamido) picolinamide] | 10 to 100 nM
C[C@H]1[C@@H](c2ccc(F)c(F)c2OCCN2CCC23COC3)[C@H](C(=O)Nc2ccnc(C(N)=O)c2)O[C@@]1(C)C(F)(F)F [Compound 125, 4-((2R,3S,4S,5R)-3-(2-(2-(6-oxa-1-azaspiro[3.3]heptan-1-yl)ethoxy)-3,4-difluorophenyl)-4,5-dimethyl-5-(trifluoromethyl)tetrahydrofuran-2-carboxamido)picolinamide] | < 10 nM
CNC(=O)COc1c([C@H]2[C@H](C(=O)Nc3ccnc(C(N)=O)c3)O[C@@](C)(C(F)(F)F)[C@H]2C)ccc(F)c1F [Compound 96, 4-((2R,3S,4S,5R)-3-(3,4-difluoro-2-(2-(methylamino)-2-oxoethoxy)phenyl)-4,5-dimethyl-5-(trifluoromethyl)tetrahydrofuran-2-carboxamido)picolinamide] | 10 to 100 nM
C[C@H]1[C@@H](c2ccc(F)c(F)c2O[C@@H]2CCN(C)C2)[C@H](C(=O)Nc2ccnc(C(N)=O)c2)O[C@@]1(C)C(F)(F)F (single isomer, unassigned) [Compound 102, rel-4-((2R*,3S*,4S*,5R*)-3-(3,4-difluoro-2-((-1-methylpyrrolidin-3-yl)oxy)phenyl)-4,5-dimethyl-5-(trifluoromethyl)tetrahydrofuran-2-carboxamido)picolinamide] | 10 to 100 nM
COc1c([C@@H]2[C@@H](C(=O)Nc3ccnc(C(N)=O)c3)O[C@](C)(C(F)(F)F)[C@@H]2C)ccc(OCC2CC2)c1F (single isomer, unassigned) [Compound 141] | 100 to 1000 nM
C[C@@H]1COCCN1CCOc1c([C@H]2[C@H](C(=O)Nc3ccnc(C(N)=O)c3)O[C@@](C)(C(F)(F)F)[C@H]2C)ccc(F)c1F [Compound 56, 4-((2R,3S,4S,5R)-3-(3,4-difluoro-2-(2-((R)-3-methylmorpholino)ethoxy)phenyl)-4,5-dimethyl-5-(trifluoromethyl)tetrahydrofuran-2-carboxamido)picolinamide] | < 10 nM
CC(COc1c([C@H]2[C@H](C(=O)Nc3ccnc(C(N)=O)c3)O[C@@](C)(C(F)(F)F)[C@H]2C)cccc1C(F)(F)F)=NO [Compound 196, 4-((2R,3S,4S,5R)-3-(2-(2-(hydroxyimino)propoxy)-3-(trifluoromethyl)phenyl)-4,5-dimethyl-5-(trifluoromethyl)tetrahydrofuran-2-carboxamido)picolinamide] | < 10 nM
C=C(COC)COc1c([C@H]2[C@H](C(=O)Nc3ccnc(C(N)=O)c3)O[C@@](C)(C(F)(F)F)[C@H]2C)ccc(F)c1F [Compound 135] | 10 to 100 nM
CNC(=O)c1cc(NC(=O)[C@@H]2O[C@@](C)(C(F)(F)F)[C@@H](C)[C@H]2c2ccc(F)c(F)c2OCC2COC2)ccn1 [Compound 66] | < 10 nM
COc1c([C@H]2[C@H](C(=O)Nc3ccnc(C(=O)N4C[C@H](N)[C@@H](F)C4)c3)O[C@@](C)(C(F)(F)F)[C@H]2C)ccc(F)c1F [Compound 260, (2R,3S,4S,5R)-N-(2-((3S,4S)-3-amino-4-fluoropyrrolidine-1-carbonyl)pyridin-4-yl)-3-(3,4-difluoro-2-methoxyphenyl)-4,5-dimethyl-5-(trifluoromethyl)tetrahydrofuran-2-carboxamide] | < 10 nM
COc1c([C@H]2[C@H](C(=O)Nc3cccc(C(=O)N4CCNCC4)n3)O[C@@](C)(C(F)(F)F)[C@H]2C)ccc(F)c1F [Compound 17, (2R,3S,4S,5R)-3-(3,4-difluoro-2-methoxyphenyl)-4,5-dimethyl-N-(6-(piperazine-1-carbonyl)pyridin-2-yl)-5-(trifluoromethyl)tetrahydrofuran-2-carboxamide] | 10 to 100 nM
CC1C(c2ccc(F)c(F)c2OCC2CC(C)(O)C2)C(C(=O)Nc2ccnc(C(N)=O)c2)OC1(C)C(F)(F)F (single isomer, unassigned) [Compound 200, rel-4-((2R*,3S*,4S*,5R*)-3-(3,4-difluoro-2-(((1s,3R)-3-hydroxy-3-methylcyclobutyl)methoxy)phenyl)-4,5-dimethyl-5-(trifluoromethyl)tetrahydrofuran-2-carboxamido)picolinamide] | 10 to 100 nM
CC(CO)COc1c([C@H]2[C@H](C(=O)Nc3ccnc(C(N)=O)c3)O[C@@](C)(C(F)(F)F)[C@H]2C)ccc(F)c1F (stereo partly drawn) [Compound 90, 4-((2R,3S,4S,5R)-3-(3,4-difluoro-2-(3-hydroxy-2-methylpropoxy)phenyl)-4,5-dimethyl-5-(trifluoromethyl)tetrahydrofuran-2-carboxamido)picolinamide] | < 10 nM
C[C@H]1[C@@H](c2ccc(F)c(F)c2OCc2cc[nH]n2)[C@H](C(=O)Nc2ccnc(C(N)=O)c2)O[C@@]1(C)C(F)(F)F [Compound 83, 4-((2R,3S,4S,5R)-3-(2-((1H-pyrazol-3-yl)methoxy)-3,4-difluorophenyl)-4,5-dimethyl-5-(trifluoromethyl)tetrahydrofuran-2-carboxamido)picolinamide] | < 10 nM
